Experimental data reported in PubChem BioAssay (NCI).
Values joined by “and” are separate entries in the source; they are usually repeats but may differ in a detail not shown here. Identical values can stand only once.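 Method: 48-hour compound exposure of cells in 96-well plates, five concentrations, linear interpolation of endpoints. Abbreviation: GI50, concentration required for 50% inhibition of growth. TGI marks complete inhibition of growth.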 Where a SMILES comes first, the peptide text is derived from it. [ ]: non-standard residue; d: D form. Ac5c = NC1(C(=O)O)CCCC1

These molecules were tested on RPMI-8226 leukemia (assay: NCI anticancer screen, dose series, 48 h).

Going from `CC1=C2[C@@H](CC1)[C@]1(C)O[C@@](C3CCCCC3)(C[C@H]1OC(=O)CO)[C@H]2OC(=O)/C=C/c1ccccc1` to `O=c1c(Oc2ccc(F)cc2F)cc2cnc(NC3CCOCC3)nc2n1C1CCS(=O)(=O)CC1`, the GI50 rises from 9.51 µM to > 25 µM.

First: O=C(O[C@H]1CN[C@H](C#Cc2cc3ncnc(Nc4ccc5c(ccn5Cc5cc(F)ccc5F)c4)c3s2)C1)N1CCOCC1
Second: C=CCC(N[C@H](CO)c1ccccc1)c1ccc2ccccc2n1 (some centres not stated)
The GI50 of the first is lower: 4.65 µM for the first, > 100 µM for the second.

Work on `COC(=O)c1cc2c(cc1Cl)SC(N(N(C)C)S(=O)(=O)c1ccc(Br)s1)=NS2(=O)=O` yielded a GI50 of 25.4 µM.

`CC1=C2[C@@H](CC1)[C@]1(C)O[C@@](C3CCCCC3)(C[C@H]1OC(=O)CO)[C@H]2OC(=O)/C=C/c1ccccc1` and `O=c1c(Oc2ccc(F)cc2F)cc2cnc(NC3CCOCC3)nc2n1C1CCS(=O)(=O)CC1` cannot be ordered by TGI: 33.2 µM for the first, > 25 µM for the second.

First: O=C(O[C@H]1CN[C@H](C#Cc2cc3ncnc(Nc4ccc5c(ccn5Cc5cc(F)ccc5F)c4)c3s2)C1)N1CCOCC1
Second: C=CCC(N[C@H](CO)c1ccccc1)c1ccc2ccccc2n1 (some centres not stated)
The TGI of the first is lower: 13.7 µM for the first, > 100 µM for the second.

`COC(=O)c1cc2c(cc1Cl)SC(N(N(C)C)S(=O)(=O)c1ccc(Br)s1)=NS2(=O)=O` was tested, and the TGI was 74.1 µM.

The molecules below were run on NCI-H23 lung (assay: NCI anticancer screen, dose series, 48 h).

First: COc1cc(/C=C/C(=O)CC(=O)/C=C/c2cc(OC)c(OC)c(OC)c2)cc(OC)c1OC
Second: COc1cc2c(cc1OCCCOc1cc3c(cc1OC)C(=O)N1C[C@H](F)C[C@H]1C=N3)N=C[C@@H]1C[C@@H](F)CN1C2=O
The GI50 of the first is 1.7-fold lower: 3.34 µM for the first, 5.83 µM for the second.

Compared with `CO[C@@H]1/C=C\C=C(/C)C(=O)NC2=CC(=O)C(NCCN(C)C)=C(C[C@@H](C)C[C@@H](OC)[C@@H](O)[C@H](C)/C=C(\C)[C@H]1OC(N)=O)C2=O`, `COc1cc(OC)cc(C2CC(=O)Nc3c2c(C)nn3-c2nc3ccccc3[nH]2)c1` (configuration not stated) is higher in GI50: < 0.0125 µM for the first, 2.79 µM for the second.

First: COc1ccc(CN(C)c2ccc(CO)c(Cl)c2)cc1
Second: C=CCC(N[C@H](CO)c1ccccc1)c1ccc2ccccc2n1 (some centres not stated)
The GI50 of the first is lower: 12.9 µM for the first, > 100 µM for the second.

First: O=C1Nc2ccc(C(=O)c3ccco3)cc2/C1=C/c1cc(Cl)c(O)c(Cl)c1
Second: Cc1cc(C)c([O-])c(CN(C)CCN(C)Cc2cc(C)cc(C)c2[O-])c1.O=C([O-])c1cccc(C(=O)[O-])n1.[Ti+4]
The GI50 of the first is 2.3-fold higher: 4.74 µM for the first, 2.03 µM for the second.

Going from `O=c1ccn(C2OC(CO)C(O)C2F)c(=O)[nH]1` (configuration not stated) to `CC1=C2[C@@H](CC1)[C@]1(C)O[C@@](C3CCCCC3)(C[C@H]1OC(=O)CO)[C@H]2OC(=O)/C=C/c1ccccc1`, the GI50 falls from > 1000 µM to 8.65 µM.

`CC(=O)[O-].CC(=O)[O-].[Pt+2].c1cscn1.c1cscn1` and `CCOC(=O)C(Cc1c[nH]c2ccc(N)cc12)(NC(C)=O)C(=O)OCC` cannot be ordered by GI50: > 100 µM for the first, > 1000 µM for the second.

Compared with `Cn1c([N+](=O)[O-])cnc1/C=C1\Oc2ccccc2C1=O`, `O=c1c2c(nc3n1CCS3)[nH]c1ccccc12` is higher in GI50: 0.37 µM for the first, > 100 µM for the second.

Going from `CCN1CCN(C(=O)[C@]23CC[C@@H](C)[C@H](C)[C@@H]2C2=CC[C@@H]4[C@@]5(C)C/C(=C/c6ccncc6)C(=O)C(C)(C)[C@@H]5CC[C@@]4(C)[C@]2(C)CC3)CC1` to `O=c1c(Oc2ccc(F)cc2F)cc2cnc(NC3CCOCC3)nc2n1C1CCS(=O)(=O)CC1`, the GI50 rises from 1.75 µM to > 25 µM.

Going from `CC(O)c1cccc(NCc2c3ccccc3c(=O)n3c2oc2ccccc23)c1` (configuration not stated) to `O=C(O[C@H]1CN[C@H](C#Cc2cc3ncnc(Nc4ccc5c(ccn5Cc5cc(F)ccc5F)c4)c3s2)C1)N1CCOCC1`, the GI50 falls from 9.41 µM to 4.25 µM (2.2-fold).

Molecule `COC(=O)c1cc2c(cc1Cl)SC(N(N(C)C)S(=O)(=O)c1ccc(Br)s1)=NS2(=O)=O` has a GI50 of 28.5 µM.

`COc1cc(/C=C/C(=O)CC(=O)/C=C/c2cc(OC)c(OC)c(OC)c2)cc(OC)c1OC` and `COc1cc2c(cc1OCCCOc1cc3c(cc1OC)C(=O)N1C[C@H](F)C[C@H]1C=N3)N=C[C@@H]1C[C@@H](F)CN1C2=O` are within 1.5-fold of each other in TGI: 20.2 µM for the first, 17.8 µM for the second.

First: CO[C@@H]1/C=C\C=C(/C)C(=O)NC2=CC(=O)C(NCCN(C)C)=C(C[C@@H](C)C[C@@H](OC)[C@@H](O)[C@H](C)/C=C(\C)[C@H]1OC(N)=O)C2=O
Second: COc1ccc([N+](=O)[O-])c2c(NCCCN(C)C)c3ccccc3nc12
The TGI of the first is 18-fold higher: 7.14 µM for the first, 0.402 µM for the second.

`COc1ccc(CN(C)c2ccc(CO)c(Cl)c2)cc1` and `CC(=O)Nc1ccc(C(=O)NN2C(=O)C(Cl)C2c2ccc(Cl)cc2)cc1` (configuration not stated) cannot be ordered by TGI: > 100 µM for the first, > 100 µM for the second.

Compared with `O=C1Nc2ccc(C(=O)c3ccco3)cc2/C1=C/c1cc(Cl)c(O)c(Cl)c1`, `Cc1cc(C)c([O-])c(CN(C)CCN(C)Cc2cc(C)cc(C)c2[O-])c1.O=C([O-])c1cccc(C(=O)[O-])n1.[Ti+4]` is 4.3-fold lower in TGI: 21.7 µM for the first, 5.06 µM for the second.

Going from `O=c1ccn(C2OC(CO)C(O)C2F)c(=O)[nH]1` (configuration not stated) to `CC1=C2[C@@H](CC1)[C@]1(C)O[C@@](C3CCCCC3)(C[C@H]1OC(=O)CO)[C@H]2OC(=O)/C=C/c1ccccc1`, the TGI falls from > 1000 µM to 26.1 µM.

`CC(=O)[O-].CC(=O)[O-].[Pt+2].c1cscn1.c1cscn1` and `CCOC(=O)C(Cc1c[nH]c2ccc(N)cc12)(NC(C)=O)C(=O)OCC` cannot be ordered by TGI: > 100 µM for the first, > 1000 µM for the second.

Compared with `Cn1c([N+](=O)[O-])cnc1/C=C1\Oc2ccccc2C1=O`, `O=c1c2c(nc3n1CCS3)[nH]c1ccccc12` is higher in TGI: 2.61 µM for the first, > 100 µM for the second.

Compared with `COc1cc(OC)cc(C2CC(=O)Nc3c2c(C)nn3-c2nc3ccccc3[nH]2)c1` (configuration not stated), `CC(O)c1cccc(NCc2c3ccccc3c(=O)n3c2oc2ccccc23)c1` (configuration not stated) is 3.5-fold higher in TGI: 7.73 µM for the first, 26.9 µM for the second.

Going from `CCN1CCN(C(=O)[C@]23CC[C@@H](C)[C@H](C)[C@@H]2C2=CC[C@@H]4[C@@]5(C)C/C(=C/c6ccncc6)C(=O)C(C)(C)[C@@H]5CC[C@@]4(C)[C@]2(C)CC3)CC1` to `O=c1c(Oc2ccc(F)cc2F)cc2cnc(NC3CCOCC3)nc2n1C1CCS(=O)(=O)CC1`, the TGI rises from 3.41 µM to > 25 µM.

`NC1(C(=O)NC2(C(=O)O)CCCC2)CCCC1` (H-[Ac5c]-[Ac5c]-OH) and `CN1CCN(CCCN)CC1` cannot be ordered by TGI: > 100 µM for the first, > 100 µM for the second.

`Nc1ccc(N(S(=O)(=O)c2ccccc2)S(=O)(=O)c2ccccc2)c(Cl)c1` and `C=CCC(N[C@H](CO)c1ccccc1)c1ccc2ccccc2n1` (some centres not stated) cannot be ordered by TGI: > 100 µM for the first, > 100 µM for the second.

`CSc1nc(C)c2c(n1)SCC2` and `COC(=O)c1cc2c(cc1Cl)SC(N(N(C)C)S(=O)(=O)c1ccc(Br)s1)=NS2(=O)=O` cannot be ordered by TGI: > 10 µM for the first, 70.9 µM for the second.

In the case of `O=C(O[C@H]1CN[C@H](C#Cc2cc3ncnc(Nc4ccc5c(ccn5Cc5cc(F)ccc5F)c4)c3s2)C1)N1CCOCC1`, the TGI is reported as 14.6 µM.

In the case of `CCN(CC)CCCC(C)Nc1c2ccc(Cl)cc2nc2ccc(OC)cc12` (configuration not stated), the TGI is reported as 4.11 µM and 3.27 µM.

What follows are molecules tested on OVCAR-8 ovarian (assay: NCI anticancer screen, dose series, 48 h).

Work on `COc1cc(/C=C/C(=O)CC(=O)/C=C/c2cc(OC)c(OC)c(OC)c2)cc(OC)c1OC` yielded a GI50 of 3.04 µM.

Molecule `COc1cc(/C=C/C(=O)CC(=O)/C=C/c2cc(OC)c(OC)c(OC)c2)cc(OC)c1OC` has a TGI of 13.8 µM.
